Where “and” joins values, the source holds several entries; their conditions need not be identical. Equal entries are not always repeated.
Columns and labels:
Human recombinant Top1 = biological target: T1, Human recombinant Top1 (Homo sapiens, UniProt P11387); assay: Topoisomerase I-mediated DNA cleavage reactions; type: biochemical; design: key to activity of the compounds to produce Top1-mediated DNA cleavage: +: weak activity; ++ and +++: moderate activity; ++ and +++: moderate activity; ++++: similar activity as 1 μM camptothecin; conditions: for Top1 inhibitory activity in Top1-mediated DNA cleavage assay: semi-quantitative scale from 0 to ++++, relative to CPT at 1 μM; for activity of the compounds to produce Top1-mediated DNA cleavage: semiquantitative, tested at 0.1 μM, 1 μM, 10 μM, 100 μM, relative to 1 μM camptothecin
T1 construct: made in house
T1 sequence (P11387 1-765): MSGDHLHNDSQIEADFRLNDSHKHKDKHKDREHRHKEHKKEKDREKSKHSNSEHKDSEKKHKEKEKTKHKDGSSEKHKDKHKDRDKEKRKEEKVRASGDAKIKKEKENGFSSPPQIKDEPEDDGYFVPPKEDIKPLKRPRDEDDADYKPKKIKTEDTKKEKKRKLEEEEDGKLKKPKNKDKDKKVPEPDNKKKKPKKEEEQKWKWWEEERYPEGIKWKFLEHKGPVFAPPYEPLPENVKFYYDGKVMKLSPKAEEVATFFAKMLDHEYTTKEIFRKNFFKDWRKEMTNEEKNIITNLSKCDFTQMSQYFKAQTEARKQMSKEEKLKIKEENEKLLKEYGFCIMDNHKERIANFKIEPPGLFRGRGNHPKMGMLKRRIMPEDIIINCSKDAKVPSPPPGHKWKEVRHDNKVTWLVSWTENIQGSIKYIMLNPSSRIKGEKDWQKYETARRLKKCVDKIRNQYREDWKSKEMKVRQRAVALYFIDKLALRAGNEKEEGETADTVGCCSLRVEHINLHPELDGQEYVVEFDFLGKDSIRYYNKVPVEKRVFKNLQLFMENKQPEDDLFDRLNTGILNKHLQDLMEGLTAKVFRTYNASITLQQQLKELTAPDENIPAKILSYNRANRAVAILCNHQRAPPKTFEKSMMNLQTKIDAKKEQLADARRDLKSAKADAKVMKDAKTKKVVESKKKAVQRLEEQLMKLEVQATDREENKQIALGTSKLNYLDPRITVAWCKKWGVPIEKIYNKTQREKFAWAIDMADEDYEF
Protocol: Topoisomerase I-Mediated DNA Cleavage Reactions. Human recombinant Top1 was purified from Baculovirus as described previously.^34 The 161 bp fragment from pBluescript SK(−) phagemid DNA (Stratagene, La Jolla, Calif.) was cleaved with the restriction endonucleases PvuII and HindIII (New England Biolabs, Beverly, Mass.) supplied in NE buffer 2 (50 μL reactions) for 1 h at 37° C., and separated by electrophoresis in a 1% agarose gel made in 1×TBE buffer. The 161 bp fragment was eluted from the gel slice using the QIAEX II kit (QIAGEN Inc., Valencia, Calif.). Approximately 200 ng of the fragment was 3′-end labeled at the HindIII site by fill-in reaction with [alpha-^32P]-dGTP and 0.5 mM dATP, dCTP, and dTTP, in React 2 buffer (50 mM Tris-HCl, pH 8.0, […], 50 mM NaCl) with 0.5 unit of DNA polymerase I (Klenow fragment). Unincorporated ^32P-dGTP was removed using mini Quick Spin DNA columns (Roche, Indianapolis, Ind.), and the eluate containing the 3′-end-labeled 161 bp fragment was collected. Aliquots (approximately 50,000 dpm/reaction) were incubated with topoisomerase I at 22° C. for 30 min in the presence of the tested drug. Reactions were terminated by adding SDS (0.5% final concentration). The samples (10 μL) were mixed with 30 μL of loading buffer (80% formamide, 10 mM sodium hydroxide, 1 mM sodium EDTA, 0.1% xylene cyanol, and 0.1% bromophenol blue, pH 8.0). Aliquots were separated in denaturing gels (16% polyacrylamine, 7 M urea). Gels were dried and visualized by using a Phosphoimager and ImageQuant software (Molecular Dynamics, Sunnyvale, Calif.). Each gel included a sample of DNA alone, DNA with only the drug, and DNA with Top I without the drug. The compounds described herein were tested at concentrations of 0.1 μM, 1 μM, 10 μM, 100 μM. The activity of the compounds to produce Top1-mediated DNA cleavage is expressed semiquantitatively as follows: +: weak activity; ++ and +++: moderate activity; ++++: similar activity as 1 μM camptothecin. Results: 33, 0; 34, 0; 32, ++; 31, +++; 30, +; 29, +; 28, 0; and 19, 0.
Biological Results.All of the target compounds were tested for induction of DNA damage in Top1-mediated DNA cleavage assays. The results of this assay are designated relative to the Top1 inhibitory activity of CPT and expressed in semi-quantitative fashion on the scale from 0, no detectable activity, to ++++, similar activity to that of compound 1 at a concentration of 1 μM. […] Compounds 29 and 30, containing an N-(3-morpholinylpropyl) or an N-(3-imidazolylpropyl), respectively were Top1 inhibitors, but only at the lower + level. Without being bound by theory, it is believed that the loss of Top1 inhibitory activity with expansion of the five-membered indenone ring of the indenoisoquinoline to the six-membered ring of compounds described herein might result from the decreased overall solubility, especially for 14, 19, and 28, rather than differences in intercalation between DNA base pairs at the Top1 cleavage site. With 29 and 30, incorporation of amines increased water solubility and affinity toward DNA, possibly due to attraction of their positively charged protonated amines with the phosphates of the DNA backbone.

[1] = Solubility in organic solvents; type: physicochemical; conditions: relative to their precursors 14 and 29
COLO 205 = assay: NCI screen antiproliferative activity, colon COLO 205; type: cell-based; conditions: Homo sapiens, concentration for 50% growth inhibition
Protocol: (§1) The antipoliferative activity of each compound was tested against 55 different human cancer cell lines in the National Cancer Institute screen.^32, 33 The chlorodibenzonaphthyridinone 32 bearing a morpholinopropyl chain on the lactam nitrogen was cytotoxic to human cancer cells at low micromolar concentrations. The cytotoxicities of 32 in selected cell lines are presented in Table 1, along with the mean graph midpoint value of 5.6 μM. In general, cytotoxicity GI50 values appeared to be in the low micromolar range, although 32 was particularly cytotoxic in the leukemia K-562 and RPMI-8226 cell lines, the ovarian IGROV1 cancer cell line, the renal UO-31 cancer cell line, and the breast MCF7 cancer cell line.

UACC-62 = assay: NCI screen antiproliferative activity, melanoma UACC-62; type: cell-based; conditions: Homo sapiens, concentration for 50% growth inhibition
Protocol: as §1

K-562 = assay: NCI screen antiproliferative activity, leukemia K-562; type: cell-based; conditions: Homo sapiens, K562, concentration for 50% growth inhibition
Protocol: as §1

MCF7 = assay: NCI screen antiproliferative activity, breast MCF7; type: cell-based; conditions: Homo sapiens, concentration for 50% growth inhibition
Protocol: as §1

IGROV1 = assay: NCI screen antiproliferative activity, ovarian IGROV1; type: cell-based; conditions: Homo sapiens, IGROV-1, concentration for 50% growth inhibition
Protocol: as §1

RPMI-8226 = assay: NCI screen antiproliferative activity, leukemia RPMI-8226; type: cell-based; conditions: Homo sapiens, concentration for 50% growth inhibition
Protocol: as §1

HCT-116 = assay: NCI screen antiproliferative activity, colon HCT-116; type: cell-based; conditions: Homo sapiens, concentration for 50% growth inhibition
Protocol: as §1

HOP-62 = assay: NCI screen antiproliferative activity, lung HOP-62; type: cell-based; conditions: Homo sapiens, concentration for 50% growth inhibition
Protocol: as §1

SN12C = assay: NCI screen antiproliferative activity, renal SN12C; type: cell-based; conditions: Homo sapiens, concentration for 50% growth inhibition
Protocol: as §1

DU-145 = assay: NCI screen antiproliferative activity, prostate DU-145; type: cell-based; conditions: Homo sapiens, concentration for 50% growth inhibition
Protocol: as §1

[2] = system: all human cancer cell lines successfully tested; assay: NCI screen mean graph midpoint for growth inhibition; type: cell-based; conditions: mean over all human cancer cell lines successfully tested
Protocol: as §1

OVCAR-3 = assay: NCI screen antiproliferative activity, ovarian OVCAR-3; type: cell-based; conditions: Homo sapiens, concentration for 50% growth inhibition
Protocol: as §1

UO-31 = assay: NCI screen antiproliferative activity, renal UO-31; type: cell-based; conditions: Homo sapiens, concentration for 50% growth inhibition
Protocol: as §1

SF-539 = assay: NCI screen antiproliferative activity, CNS SF-539; type: cell-based; conditions: Homo sapiens, concentration for 50% growth inhibition
Protocol: as §1

[3] = Top1-mediated DNA fragmentation pattern, compared with indenoisoquinolines

With `COc1cc2c(=O)n(C)c3c4ccccc4[nH]c(=O)c3c2cc1OC` [Compound 14, 8,9-Dimethoxy-5-methyldibenzo[c,h][1,6]naphthyridine-6,11(5H,12H)-dione] the “Top1 inhibitory activity in Top1-mediated DNA cleavage assay” value (“Top1 inhibitory activity” below) (Human recombinant Top1) was “no detectable inhibition and 0”.
In the case of `C=CCn1c(=O)c2cc(OC)c(OC)cc2c2c(=O)[nH]c3ccccc3c21` [Compound 19, 5-Allyl-8,9-dimethoxydibenzo[c,h][1,6]naphthyridine-6,11(5H,12H)-dione], the “Top1 inhibitory activity” value (Human recombinant Top1) is reported as “no detectable inhibition” and the “activity of the compounds to produce Top1-mediated DNA cleavage” value (from here on “activity of the compounds”) (Human recombinant Top1) is reported as 0.
In the case of `COc1cc2c(=O)n(CCCO)c3c4ccccc4[nH]c(=O)c3c2cc1OC` [Compound 28, 5-(3-Hydroxypropyl)-8,9-dimethoxydibenzo[c,h][1,6]naphthyridine-6,11(5H,12H)-dione], the “Top1 inhibitory activity” value (Human recombinant Top1) is reported as “no detectable inhibition” and the “activity of the compounds” value (Human recombinant Top1) is reported as 0.
For `COc1cc2c(=O)n(CCCN3CCOCC3)c3c4ccccc4[nH]c(=O)c3c2cc1OC` [Compound 29, 8,9-Dimethoxy-5-(3-morpholinopropyl)dibenzo[c,h][1,6]naphthyridine-6,11(5H,12H)-dione], the “activity of the compounds” value (Human recombinant Top1) was “+”.
For `COc1cc2c(=O)n(CCCn3ccnc3)c3c4ccccc4[nH]c(=O)c3c2cc1OC` [Compound 30, 5-(3-(1H-Imidazol-1-yl)propyl)-8,9-dimethoxydibenzo[c,h][1,6]-naphthyridine-6,11(5H,12H)dione], the “activity of the compounds” value (Human recombinant Top1) was “+”.
For `COc1cc2c(=O)n(C)c3c4ccccc4nc(Cl)c3c2cc1OC` [Compound 31, 11-Chloro-8,9-dimethoxy-5-methyldibenzo[c,h][1,6]naphthyridin-6(5H)-one], the “cleavage band intensity at base pair 97” value (Human recombinant Top1; [3]) was “more intense”, the “cleavage band intensity at base pairs 44 and 68” value (Human recombinant Top1; [3]) was “weak” and the “activity of the compounds” value (Human recombinant Top1) was “+++”. For the same compound, the “solubilities in solvents like DMSO, methanol and chloroform” value [1] was “increased substantially”.
With `COc1cc2c(=O)n(CCCN3CCOCC3)c3c4ccccc4nc(Cl)c3c2cc1OC` [Compound 32, 11-Chloro-8,9-dimethoxy-5-(3-morpholinopropyl)dibenzo[c,h][1,6]-naphthyridin-6(5H)-one] the “DNA cleavage sites with significant band intensity” value (Human recombinant Top1; Top1-mediated DNA fragmentation pattern) was “only bands for cleavages at the 97 and 119 sites are intense enough to be significant”, the “activity of the compounds” value (Human recombinant Top1) was “++” and the GI50 (COLO 205) was 0.33 µM. For the same compound, the GI50 (UACC-62) was 6.8 µM, the GI50 (K-562) was 0.2 µM and the GI50 (MCF7) was 0.4 µM. The GI50 (IGROV1) was 0.03 µM, the GI50 (RPMI-8226) was 0.1 µM and the melting point was 185 to 190 °C (dec.). The GI50 (HCT-116) was 4.16 µM, the GI50 (HOP-62) was 4.7 µM and the GI50 (SN12C) was 13.2 µM. For the same compound, the “solubilities in solvents like DMSO, methanol and chloroform” value [1] was “increased substantially”, the GI50 (DU-145) was 10.5 µM and the MGM (mean GI50 across cell lines) [2] was 5.6 µM. For the same compound, the GI50 (OVCAR-3) was 6.3 µM, the GI50 (UO-31) was 0.02 µM and the GI50 (SF-539) was 12.3 µM.
In the case of `COc1cc2c(Cl)nc3c4ccccc4nc(Cl)c3c2cc1OC` [Compound 33, 6,11-Dichloro-8,9-dimethoxydibenzo[c,h][1,6]naphthyridine], the “Top1 inhibitory activity” value (Human recombinant Top1) is reported as “loss of activity” and the “activity of the compounds” value (Human recombinant Top1) is reported as 0.
With `COc1cc2c(OC)nc3c4ccccc4nc(OC)c3c2cc1OC` [Compound 34, 6,8,9,11-Tetramethoxydibenzo[c,h][1,6]naphthyridine] the “Top1 inhibitory activity” value (Human recombinant Top1) was “loss of activity” and the “activity of the compounds” value (Human recombinant Top1) was 0.

Source: patent US9073920B2, “Substituted dibenzonaphthyridines, pharmaceutical uses thereof and processes therfor” (Purdue Research Foundation, priority 2010, dated 2015)
